Tested on: KRAS PDC multicell spheroid viability
Assay: Anticancer human tumor 521955-158-R6-J3-PDC patient-derived pancreatic carcinoma cell line growth inhibition [KRAS2]
Details: for IC50: curve of first compound; for viability, T/C: stronger effect = lower value
Method in brief: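 Combination screen of spheroid viability in tumor-cell co-cultures with endothelial (HUVEC) and mesenchymal stem cell stroma. Each agent was tested in half-log dilutions, topping at clinical Cmax or at 10 microM without a known Cmax.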
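Note: drug exposure lasted seven days.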
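Throughout, for viability, T/C: 100% = DMSO vehicle wells and lower means fewer viable cells.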

CC(=O)Nc1cccc(-n2c(=O)n(C3CC3)c(=O)c3c(Nc4ccc(I)cc4F)n(C)c(=O)c(C)c32)c1 + C=CC(=O)N1CCN(c2nc(OCC3CCCN3C)nc3c2CCN(c2cccc4cccc(C)c24)C3)CC1CC#N
IC50 (second compound 0.0316 µM): > 31.6 nM | IC50 (second compound 0.1 µM): 28.4 nM | IC50 (second compound 0.316 µM): 21.2 nM | IC50 (second compound 1 µM): 9.67 nM | IC50 (second compound 3.16 µM): < 0.1 nM | viability, T/C (second compound 0.0316 µM, first compound 0.0001 µM): 109% | viability, T/C (second compound 0.0316 µM, first compound 0.000316 µM): 109% | viability, T/C (second compound 0.0316 µM, first compound 0.001 µM): 108% | viability, T/C (second compound 0.0316 µM, first compound 0.00316 µM): 83.2% | viability, T/C (second compound 0.0316 µM, first compound 0.01 µM): 83.9% | viability, T/C (second compound 0.0316 µM, first compound 0.0316 µM): 52.8% | viability, T/C (second compound 0.1 µM, first compound 0.0001 µM): 93.1% | viability, T/C (second compound 0.1 µM, first compound 0.000316 µM): 111% | viability, T/C (second compound 0.1 µM, first compound 0.001 µM): 100% | viability, T/C (second compound 0.1 µM, first compound 0.00316 µM): 81.4% | viability, T/C (second compound 0.1 µM, first compound 0.01 µM): 76.8% | viability, T/C (second compound 0.1 µM, first compound 0.0316 µM): 46.8% | viability, T/C (second compound 0.316 µM, first compound 0.0001 µM): 89.4% | viability, T/C (second compound 0.316 µM, first compound 0.000316 µM): 96% | viability, T/C (second compound 0.316 µM, first compound 0.001 µM): 101% | viability, T/C (second compound 0.316 µM, first compound 0.00316 µM): 83.9% | viability, T/C (second compound 0.316 µM, first compound 0.01 µM): 66.8% | viability, T/C (second compound 0.316 µM, first compound 0.0316 µM): 41.2% | viability, T/C (second compound 1 µM, first compound 0.0001 µM): 72.4% | viability, T/C (second compound 1 µM, first compound 0.000316 µM): 72.4% | viability, T/C (second compound 1 µM, first compound 0.001 µM): 87.1% | viability, T/C (second compound 1 µM, first compound 0.00316 µM): 65.4% | viability, T/C (second compound 1 µM, first compound 0.01 µM): 50.9% | viability, T/C (second compound 1 µM, first compound 0.0316 µM): 38% | viability, T/C (second compound 3.16 µM, first compound 0.0001 µM): 40.3% | viability, T/C (second compound 3.16 µM, first compound 0.000316 µM): 52.7% | viability, T/C (second compound 3.16 µM, first compound 0.001 µM): 24.4% | viability, T/C (second compound 3.16 µM, first compound 0.00316 µM): 29.1% | viability, T/C (second compound 3.16 µM, first compound 0.01 µM): 2.14% | viability, T/C (second compound 3.16 µM, first compound 0.0316 µM): 8.79%
